Results published in patent US9212130B2, “Heterocyclic derivative and pharmaceutical composition comprising the same” (SHIONOGI & CO., LTD., priority 2010, dated 2015).

What was measured:
human P2X3 receptor = human P2X3 receptor (Homo sapiens (Human), UniProt P56373); test: Evaluation of human P2X3 receptor inhibitory activity (ATP-induced Fluo-3 fluorescence, FDSS 3000); format: cell-based; conditions: C6BU-1 cell transfected with human P2X3 receptor gene
Method: The plate was placed in High-Throughput Screening System FDSS 3000 (Hamamatsu Photonics K.K.). […] Five minutes after, 50 nM ATP solution (50 μL) prepared by dilution with the dilution buffer was dispensed through the built-in automatic dispenser, and the measurement of fluorescence intensity was continued for 3 min. For each well, the specific maximum fluorescence intensity was calculated as the ratio of the maximum fluorescence intensity after addition of the ATP solution to the fluorescence intensity at the starting of the measurement. […] FDSS software (Hamamatsu Photonics K.K.) was used for calculation of the specific maximum fluorescence intensity. IC50 was calculated using Microsoft Excel (Microsoft. Corporation) and XLfit (idbs Ltd.)
The aforementioned in mM, μM and nM are each means mmol/L, μmol/L and nmol/L, respectively.
In tables, μM means μmol/L.

[1] = Bioavailability (BA) test; format: in vivo; conditions: plasma; Mice or SD rats; oral 0.3 to 30 mg/kg vs intravenous 0.5 to 10 mg/kg; from AUCs
Method: Materials and Methods for Experiment of BA
• (1) Animals: Mice or SD rats were used • (2) Breeding conditions: Mice or SD rats were allowed to freely take solid food and sterilized tap water. • (3) Dose and grouping: orally or intravenously administered at a predetermined dose; grouping was as follows (Dose depends on the compound) Oral administration: 0.3 to 30 mg/kg (n=2 to 3) Intravenous administration: 0.5 to 10 mg/kg (n=2 to 3) • (4) Preparation of dosing solution: for oral administration, in a solution or a suspension state; for intravenous administration, in a solubilized state • (5) Administration method: in oral administration, forcedly administer into ventriculus with oral probe; in intravenous administration, administer from caudal vein with a needle-equipped syringe • (6) Evaluation items: blood was collected over time, and the plasma concentration of drug was measured by LC/MS/MS • (7) Statistical analysis: regarding the transition of the plasma concentration of the present compound, the area under the plasma concentration-time curve (AUC) was calculated by non-linear least squares program WinNonlin (Registered trade name), and the bioavailability (BA) was calculated from the AUCs of the oral administration group and intravenous administration group

Solubility test = format: physicochemical; conditions: 25 °C, other biorelevant, kinetic from dmso stock
Method: The solubility of a compound was determined under a condition in which 1% DMSO was added. 10 mmol/L compound solution was prepared using DMSO, and then 6 μL of the compound solution was added to 594 μL of artificial intestinal juice in […] (to 250 mL of 0.2 mol/L potassium dihydrogen phosphate reagent solution was added 118 mL of 0.2 mol/L NaOH reagent solution and water to provide a final volume of 1000 mL). After standing at 25 degrees Celsius for 16 hours, the mixed solution was filtrated with suction. The filtrate was diluted twice with methanol/water (1/1) and then a concentration in the filtration was measured with HPLC or LC/MS/MS by the absolute calibration method.

[2] = Metabolism stability test (pooled human hepatic microsomes); format: in vitro ADME; conditions: human liver microsomes 0.5 mg protein/mL; 37° C., 30 minutes; 1 mmol/L NADPH; compound concentration 0.5 μmol/L
Method: Using commercially available pooled human hepatic microsomes, a test compound was reacted for a constant time, a remaining rate was calculated by comparing a reacted sample and an unreacted sample, thereby, a degree of metabolism in liver was assessed.
A reaction was performed (oxidative reaction) at 37° C. for 0 minute or 30 minutes in the presence of 1 mmol/L NADPH in 0.2 mL of a buffer (50 mmol/L tris-HCl pH 7.4, 150 mmol/L potassium chloride, 10 mmol/L magnesium chloride) containing 0.5 mg protein/mL of human liver microsomes. After the reaction, 50 μL of the reaction solution was added to 100 μL of a methanol/acetonitrile 1/1 (v/v), mixed and centrifuged at 3000 rpm for 15 minutes. The test compound in the supernatant was quantified by LC/MS/MS, and a remaining amount of the test compound after the reaction was calculated, letting a compound amount at 0 minute reaction time to be 100%.

CYP3A4 = CYP3A4 (Homo sapiens (Human), UniProt P08684); test: CYP3A4 fluorescent MBI test; format: in vitro ADME; conditions: pre-reaction time 0 or 30 minutes; substrate 7-BFC; CYP3A4 expressed in Escherichia coli
Method: The CYP3A4 fluorescent MBI test is a test of investigating enhancement of CYP3A4 inhibition of a compound by a metabolism reaction, and the test is performed using, as CYP3A4 enzyme expressed in Escherichia coli and employing, as an index, a reaction in which 7-benzyloxytrifluoromethylchmarin (BFC) is debenzylated by the CYP3A4 enzyme to produce a metabolite, 7-hydroxytrifluoromethylchmarin (HFC) emitting fluorescent light.
The reaction conditions were as follows: substrate, 5.6 μmol/L 7-BFC; pre-reaction time, 0 or 30 minutes; reaction time, 15 minutes; reaction temperature, 25° C.
An enzyme in a K-Pi buffer (pH 7.4) and a test drug solution as a pre-reaction solution were added to a 96-well plate at the composition of the pre-reaction, a part of it was transferred to another 96-well plate so that it was 1/10 diluted by a substrate in a K-Pi buffer, NADPH as a co-factor was added to initiate a reaction as an index (without preincubation) and, after a predetermined time of a reaction, acetonitrile: 0.5 mol/L Tris (trishydroxyaminomethane)=4:1 was added to stop the reaction. In addition, NADPH was added to a remaining preincubation solution to initiate a preincubation (with preincubation) and, after a predetermined time of a preincubation, a part was transferred to another plate so that it was 1/10 diluted with a substrate and a K-Pi buffer to initiate a reaction as an index, After a predetermined time of a reaction, acetonitrile: 0.5 mol/L Tris (trishydroxyaminomethane)=4:1 was added to stop the reaction. For the plate on which each index reaction had been performed, a fluorescent value of 7-HFC which is a metabolite was measured with a fluorescent plate reader. (Ex=420 nm, Em=535 nm).
Addition of only DMSO which is a solvent dissolving a drug to a reaction system was adopted as a control (100%), remaining activity (%) was calculated at each concentration of a test drug added as the solution, and IC50 was calculated by reverse-presumption by a logistic model using a concentration and an inhibition rate. When a difference between IC50 values is 5 or more, this was defined as (+) and, when the difference is 3 μmol/L or less, this was defined as (−).

[3] = artificial intestinal juice (phosphate buffer) with 1% DMSO, artificial intestinal juice in pH 8.8, 25 degrees Celsius for 16 hours

human P2X3 receptor, sequence (P56373 whole entry): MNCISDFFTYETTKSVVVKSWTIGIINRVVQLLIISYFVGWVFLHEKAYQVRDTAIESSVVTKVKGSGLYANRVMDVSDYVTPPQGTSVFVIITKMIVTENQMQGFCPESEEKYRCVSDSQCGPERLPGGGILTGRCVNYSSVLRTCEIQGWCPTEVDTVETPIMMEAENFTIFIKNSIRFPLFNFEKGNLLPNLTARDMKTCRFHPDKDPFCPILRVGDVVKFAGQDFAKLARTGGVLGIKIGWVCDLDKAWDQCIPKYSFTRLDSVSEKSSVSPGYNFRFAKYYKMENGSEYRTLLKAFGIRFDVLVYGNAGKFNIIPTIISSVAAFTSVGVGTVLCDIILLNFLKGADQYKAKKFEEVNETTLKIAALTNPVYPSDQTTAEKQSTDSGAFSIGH
CYP3A4, sequence (P08684 whole entry): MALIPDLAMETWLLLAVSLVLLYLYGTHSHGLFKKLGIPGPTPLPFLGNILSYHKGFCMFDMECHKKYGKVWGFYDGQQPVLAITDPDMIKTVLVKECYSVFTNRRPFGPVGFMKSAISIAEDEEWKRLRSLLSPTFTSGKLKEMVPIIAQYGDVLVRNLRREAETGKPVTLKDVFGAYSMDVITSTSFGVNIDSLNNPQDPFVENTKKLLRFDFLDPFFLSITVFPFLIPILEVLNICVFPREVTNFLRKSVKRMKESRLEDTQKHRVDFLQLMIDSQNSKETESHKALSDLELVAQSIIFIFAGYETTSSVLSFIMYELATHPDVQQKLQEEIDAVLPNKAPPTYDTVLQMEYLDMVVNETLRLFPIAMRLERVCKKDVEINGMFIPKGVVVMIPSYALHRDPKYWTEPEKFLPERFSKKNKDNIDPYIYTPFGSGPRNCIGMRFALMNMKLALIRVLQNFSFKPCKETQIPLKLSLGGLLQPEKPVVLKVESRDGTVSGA

Row | SMILES | IC50 (human P2X3 receptor) | also measured
1 | CC(C)Oc1ccc(Nc2cc(=O)n(CC(C)(C)C(=O)O)c(=O)n2Cc2ccc(Cl)cc2)cc1F [I-021] | 19 nM | bioavailability [1]: 49.1%
2 | CC(C)Oc1ccc(Nc2cc(=O)n(CC(=O)NCCO)c(=O)n2Cc2ccc(Cl)cc2)cc1F [I-112, 1-(4-chlorobenzyl)-6-(3-fluoro-4-isopropoxyphenylamino)-3-(2-hydroxyethylcarbamoylmethyl)pyrimidine-2,4(1H,3H)-dion] | 14 nM | solubility at 16 h (Solubility test; 1% DMSO, artificial intestinal juice in pH 8.8, 25 degrees Celsius for 16 hours): > 50 µM
3 | CC(C)Oc1ccc(Nc2nc(=O)c(CCC(=O)O)cn2Cc2ccc(Cl)cc2)cc1Cl [I-117] | – | solubility at 16 h (Solubility test; [3]): > 50 µM
4 | CCOC(=O)c1cn(Cc2ccc(Cl)cc2)c(Nc2ccc(OC(C)C)c(F)c2)nc1=O [I-131, 1-(4-chlorobenzyl)-2-(3-fluoro-4-isopropoxyphenylamino)-5-(ethoxycarbonyl)pyrimidine-4(1H)-one] | – | remaining rate [2]: 92%
5 | Cc1cc(Nc2cc(=O)n(C[C@H](C)C(=O)O)c(=O)n2Cc2ccc(Cl)cc2)ccc1OC(C)C [I-215] | 24 nM | bioavailability [1]: 49.7%
6 | Cc1nc2ccc(Nc3nc(=O)c(C(=O)NC4CCOCC4)cn3Cc3ccc(Cl)cc3)cc2s1 [I-286] | 8 nM | bioavailability [1]: 41.7%
7 | CC(C)Oc1ccc(Nc2ncc(NC(=O)NC3CCOCC3)c(=O)n2Cc2ccc(Cl)cc2)cc1F [I-289] | 7 nM | remaining rate [2]: 89%
8 | Cc1nc2ccc(Nc3nc(=O)c(C(=O)NCCCO)cn3Cc3ccc(Cl)cc3)cc2s1 [I-299] | 111 nM | solubility at 16 h (Solubility test; [3]): > 50 µM
9 | Cc1ncc(Oc2ccc(Nc3ncc(NC(=O)C4CCOCC4)c(=O)n3Cc3ccc(Cl)cc3)cc2)cc1F [I-313] | 3 nM | bioavailability [1]: 28.5%
10 | CCn1c(=O)cc(Nc2ccc(Oc3cncc(C(=O)O)c3)cc2)n(Cc2ccc(Cl)cc2)c1=O [I-315] | 6 nM | IC50 difference (CYP3A4): < 3000 nM; remaining rate [2]: 105%
11 | CCn1c(=O)cc(Nc2ccc(Oc3ccnc(C(=O)OC)c3)cc2)n(Cc2ccc(Cl)cc2)c1=O [I-316] | 9 nM | –
12 | CCn1c(=O)cc(Nc2ccc(Oc3ccnc(C(=O)O)c3)cc2)n(Cc2ccc(Cl)cc2)c1=O [I-317] | 3 nM | –
13 | Cc1nc2ccc(Nc3ncc(NC(=O)OC(C)(C)C)c(=O)n3Cc3ccc(Cl)cc3)cc2s1 [I-318] | 9 nM | –
14 | Cc1nc2ccc(Nc3ncc(NC(=O)OCc4ccccc4)c(=O)n3Cc3ccc(Cl)cc3)cc2s1 [I-319] | 105 nM | –
15 | CCC1(CC)C(=O)N/C(=N\c2ccc(OC(C)C)cc2)N(Cc2ccc(Cl)cc2)C1=O [I-327] | 867 nM | –
16 | Cc1nc(Nc2ccc(OC(C)C)cc2)n(Cc2ccc(Cl)cc2)c(=O)c1Cc1ccccc1 [I-330] | 350 nM | –
17 | CC(C)NC(=O)c1c(O)[nH]/c(=N\c2ccc(OC(C)C)cc2)n(Cc2ccc(Cl)cc2)c1=O [I-332] | 504 nM | –
18 | COC(=O)CCNC(=O)c1c(O)[nH]/c(=N\c2ccc(OC(C)C)cc2)n(Cc2ccc(Cl)cc2)c1=O [I-333, 1-(4-chlorobenzyl)-3-(2-methoxycarbonylethyl)carbamoyl-4-hydroxy-6-(4-isopropoxyphenylimino)-2,3-dihydro-pyrimidine-4-one] | 115 nM | –
19 | CCOC(=O)c1c(O)[nH]/c(=N\c2ccc(OC(C)C)cc2)n(Cc2ccc(Cl)cc2)c1=O [I-334] | 188 nM | –

Row | SMILES | IC50 (human P2X3 receptor) | also measured
20 | CC(=O)Nc1c(O)[nH]/c(=N\c2ccc(OC(C)C)cc2)n(Cc2ccc(Cl)cc2)c1=O [I-339, 1-(4-chlorobenzyl)-3-acetylamino-4-hydroxy-6-(4-isopropoxyphenylimino)-2,3-dihydro-pryimidine-4-one] | 518 nM | –
21 | CC(C)Oc1ccc(/N=c2\[nH]c(O)c(NC(=O)C(C)C)c(=O)n2Cc2ccc(Cl)cc2)cc1 [I-341] | 681 nM | –
22 | Cc1cc(=O)n(Cc2ccc(Cl)cc2)c(Nc2ccc3nc(C)sc3c2)n1 [I-343] | 694 nM | –
23 | CCOC(=O)c1c(C)nc(Nc2ccc3nc(C)sc3c2)n(Cc2ccc(Cl)cc2)c1=O [I-345] | 273 nM | –
24 | Cc1nc2ccc(Nc3nc(C)c(C(N)=O)c(=O)n3Cc3ccc(Cl)cc3)cc2s1 [I-347] | 182 nM | –
25 | Cc1nc2ccc(Nc3nc(C)c(NC(=O)OC(C)(C)C)c(=O)n3Cc3ccc(Cl)cc3)cc2s1 [I-348] | 105 nM | –
26 | Cc1nc2ccc(Nc3nc(C)c(Br)c(=O)n3Cc3ccc(Cl)cc3)cc2s1 [I-349] | 280 nM | –
27 | C=Cc1c(C)nc(Nc2ccc3nc(C)sc3c2)n(Cc2ccc(Cl)cc2)c1=O [I-350] | 385 nM | –
28 | CCc1c(C)nc(Nc2ccc3nc(C)sc3c2)n(Cc2ccc(Cl)cc2)c1=O [I-351] | 146 nM | –
29 | COC(=O)CCCn1c(=O)cc(Nc2ccc3nc(C)sc3c2)n(Cc2ccc(Cl)cc2)c1=O [I-352] | 24 nM | –
30 | Cc1nc2ccc(Nc3cc(=O)n(CCOC4CCCCO4)c(=O)n3Cc3ccc(Cl)cc3)cc2s1 (stereo not shown) [I-353] | 9 nM | –
31 | Cc1nc2ccc(Nc3cc(=O)n(CCO)c(=O)n3Cc3ccc(Cl)cc3)cc2s1 [I-355] | 57 nM | –
32 | CC(=O)N1CCC(C(=O)Nc2cnc(Nc3ccc4nc(C)sc4c3)n(Cc3ccc(Cl)cc3)c2=O)CC1 [I-356] | 18 nM | solubility at 16 h (Solubility test; [3]): > 50 µM
33 | COC(=O)c1cccc(Oc2ccc(Nc3ncc(NC(=O)C4CCOCC4)c(=O)n3Cc3ccc(Cl)cc3)cc2)c1 [I-357] | 3 nM | –
34 | CC(=O)OC(C)(C)C(=O)Nc1cnc(Nc2ccc3nc(C)sc3c2)n(Cc2ccc(Cl)cc2)c1=O [I-358] | 16 nM | –
35 | O=C(O)c1cccc(Oc2ccc(Nc3ncc(NC(=O)C4CCOCC4)c(=O)n3Cc3ccc(Cl)cc3)cc2)c1 [I-359] | 2 nM | IC50 difference (CYP3A4): < 3000 nM; remaining rate [2]: 101%
36 | Cc1nc2ccc(Nc3ncc(NC(=O)C(C)(C)O)c(=O)n3Cc3ccc(Cl)cc3)cc2s1 [I-360] | 3 nM | –
37 | Cc1nc2ccc(Nc3ncc(NC(=O)C(CO)CO)c(=O)n3Cc3ccc(Cl)cc3)cc2s1 [I-361] | 10 nM | –
